In one experiment the target is T1, GLIC (Gloeobacter violaceus, UniProt Q7NDN8).
T1 sequence (Q7NDN8 44-359): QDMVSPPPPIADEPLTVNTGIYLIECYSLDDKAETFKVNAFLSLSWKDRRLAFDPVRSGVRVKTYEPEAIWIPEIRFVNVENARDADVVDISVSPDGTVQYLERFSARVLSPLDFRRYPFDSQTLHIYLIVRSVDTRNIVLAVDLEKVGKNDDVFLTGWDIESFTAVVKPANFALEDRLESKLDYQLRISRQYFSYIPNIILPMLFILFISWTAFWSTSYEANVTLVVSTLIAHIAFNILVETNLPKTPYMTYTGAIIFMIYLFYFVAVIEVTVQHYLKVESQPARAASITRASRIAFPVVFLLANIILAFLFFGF
The note with it: cited from earlier work; for inhibition of GLIC: at clinical concentration; for nH: Hill number of the inhibition curve; for nH / currents inhibited by up to: EC20 concentration (pH 4.7-5.3) of protons; for IC50: currents elicited by an EC20 concentration (pH 4.7-5.3) of protons; for currents inhibited by up to: maximal inhibition.

In another experiment the target is wild-type GLIC (Gloeobacter violaceus, UniProt Q7NDN8). The experiment is described as follows: cell-based. The protocol: (§1) We monitored the inhibitory action of both anesthetics by two-electrode voltage clamp on oocytes expressing the GLIC channel. A typical experiment consists at activating the GLIC channel by an EC20 concentration of protons for 5 min, a period during which anesthetics are applied for 1min, 1 min after the onset of proton application.

The next experiment relates to I202A mutated GLIC. The experiment is described as follows: Two-electrode voltage clamp on oocytes, mutant GLIC. Type of experiment: cell-based, Gloebacter violaceus. The protocol: (§2) • Figure 3A. […] Xenopus laevis oocytes, holding potential -60 to -40 mV.
(§3) For desflurane inhibition (figures 3C-3F), full dose-inhibition curves were measured at pH20.
On the technique in general: Two-electrode voltage clamp is typically applied to oocytes expressing channels or transporters.

The subject of another experiment is I202W mutated GLIC. The experiment is described as above. In kind it is cell-based, Gloebacter violaceus. The protocol: as §2, §3
The subject of another experiment is I202Y mutated GLIC. Described as above. In kind it is cell-based, Gloebacter violaceus. As to the method: as §2, §3
A further experiment concerns T255A mutated GLIC. The description is as above. In kind it is cell-based, Gloebacter violaceus. As to the method: as §2, §3
The next experiment relates to V242M mutated GLIC. Described as above. In kind it is cell-based, Gloebacter violaceus. The protocol: as §2, §3
The subject of the next experiment is I258A mutated GLIC. The note with it: activation at pH20 (pH 5.5 to 5.8). The protocol:
as §1
(§4) Key residues contacting or neighboring propofol and desflurane in the 3D structure were mutated to alanine, or to more bulky residues in order to decrease the size of the binding pocket (mutants I202 A,Y,W, V242 A,M,W, T255A and I258A,M). […] Mutants were first characterized by their trace currents and proton dose-response curve (figures 3C-3F).

Another experiment deals with I258M mutated GLIC. The conditions noted are these: activation at pH20 (pH 5.5 to 5.8). As to the method:
as §1, §4

A further experiment has as its system V242A mutated GLIC. The protocol:
as §1, §4

[1] abbreviates: activation at pH20 (pH 5.5 to 5.8), 10 µM propofol (Fig. 3C).
[2] abbreviates: activation at pH20 (pH 6.5-6.8), 10 µM propofol (Fig. 3C).
Where [3] appears, read: increased sensitivity for propofol.

Each structure is given as a SMILES string.

As for `CCOC(=O)c1cncn1[C@H](C)c1ccccc1` [etomidate, ethyl 3-[(1R)-1-phenylethyl]imidazole-4-carboxylate], the “inhibition of GLIC” value on GLIC was “robustly inhibited”.
Regarding `CC(C)c1cccc(C(C)C)c1O` [propofol, 2,6-diisopropylphenol], the entries for the “inhibition of GLIC” value on wild-type GLIC (higher proton concentration (at the EC50)) and on GLIC were “no longer observed” and “robustly inhibited”, respectively. Besides, at wild-type GLIC (read-out: inhibition of GLIC), the inhibition at 10 µM came out at 28%. Also, the “propofol inhibition compared with WT” value in the experiment with I202A mutated GLIC (setting [1]) was “not significantly different from WT”; in the experiment on I202W mutated GLIC (setting [1]), “not significantly different from WT”; in the experiment with I202Y mutated GLIC (setting [2]), “not significantly different from WT”; in the experiment on T255A mutated GLIC (setting [2]), “more inhibited”; in the experiment with V242M mutated GLIC (setting [1]), “more inhibited”; with I258A mutated GLIC it was “not significantly different from WT”. Also, the results for the “propofol inhibition compared with WT” value with I258M mutated GLIC and in the experiment on V242A mutated GLIC (activation at pH20 (pH 5.5 to 5.8)) were “not significantly different from WT” and “more inhibited”, respectively. In addition, the “propofol dose-inhibition curve compared with wt” value with T255A mutated GLIC (setting [3]), with V242M mutated GLIC (setting [3]) and with V242A mutated GLIC (setting [3]) was “shift of the dose-inhibition curve toward the left” in each case. Moreover, on GLIC, the nH is given as 0.39. Besides, on GLIC, the IC50 is 0.6 µM. At GLIC, the “currents inhibited by up to” value is “up to 90%”.
For `CC(O)CC(=O)O` (stereo not shown) [3-hydroxybutyric acid], the “inhibition of GLIC” value on GLIC is recorded as “robustly inhibited”.
As to `FC(F)OC(F)C(F)(F)F` (stereo not shown) [desflurane, 2-(difluoromethoxy)-1,1,1,2-tetrafluoro-ethane], the “desflurane inhibition, full dose-inhibition curve compared with WT” value was “did not alter significantly” with I202A mutated GLIC (at pH20); “did not alter significantly” in the experiment with I202W mutated GLIC (at pH20); “did not alter significantly” with I202Y mutated GLIC (at pH20); “dramatic shift of the curve to the right” in the experiment on T255A mutated GLIC (at pH20, decreased sensitivity toward desflurane); “did not alter significantly” in the experiment on V242M mutated GLIC (at pH20). At GLIC, the nH is 0.24. Moreover, the “inhibition of GLIC” value at GLIC is “robustly inhibited”. Besides, the IC50 on GLIC was 10 µM. Also, the “currents inhibited by up to” value on GLIC was “up to 90%”.

The term inhibition denotes the relative decrease from the control value, in per cent. As a reminder, the IC50 is the concentration that inhibits the measured activity by half.
